Experimental data reported in patent US8147818B2, “Hepatitis C virus inhibitors” (Bristol-Myers Squibb Company, priority 2008, dated 2012).

System: HCV 1b-377-neo replicon cells
Assay: HCV Replicon assay, HCV 1b-377-neo replicon cells
Format: cell-based, HCV 1b genotype
Settings: Hepatitis C virus, read-out: EC50 against HCV 1b (Activity or Range)
Procedure: An HCV Replicon assay was utilized in the present disclosure, and was prepared, conducted and validated as described in commonly owned PCT/US2006/022197 and in O'Boyle et. al. Antimicrob Agents Chemother. 2005 April; 49(4):1346-53.
HCV 1b-377-neo replicon cells were used to test the currently described compound series as well as cells resistant to compound A containing a Y2065H mutation in NS5A (described in application PCT/US2006/022197). The compounds tested were determined to have more than 10-fold less inhibitory activity on cells containing the mutation than wild-type cells indicating a related mechanism of action between the two compound series. Thus, the compounds of the present disclosure can be effective to inhibit the function of the HCV NS5A protein and are understood to be as effective in combinations as previously described in application PCT/US2006/022197 and commonly owned WO/O4014852. Further, the compounds of the present disclosure can be effective against the HCV 1b genotype. It should also be understood that the compounds of the present disclosure can inhibit multiple genotypes of HCV. […] In one embodiment compounds of the present disclosure are active against the 1a, 1b, 2a, 2b, 3a, 4a, and 5a genotypes.

Compared with `COC(=O)N[C@H](C(=O)N1CCC[C@H]1c1ncc(-c2ccc(-c3ccc4c(c3)CCCc3[nH]c([C@@H]5CCCN5C(=O)[C@@H](NC(=O)OC)C(C)C)nc3-4)cc2)[nH]1)C(C)C` [Example 22], `COC(=O)N[C@H](C(=O)N1CCC[C@H]1c1ncc(-c2ccc(-c3ccc4c(c3)CCCc3[nH]c([C@@H]5CCCN5C(=O)[C@@H](NC(=O)OC)C(C)C)nc3-4)cc2F)[nH]1)C(C)C` [Example 22g] is 5-fold lower in EC50: 0.005 nM for the first, 0.001 nM for the second. The second is the more potent here.

Going from `CCN(CC)[C@@H](C(=O)N1CCC[C@H]1c1nc2c([nH]1)CCCc1cc(-c3ccc(-c4[nH]c([C@@H]5CCCN5C(=O)[C@@H](c5ccccc5)N(CC)CC)nc4CC(F)(F)F)cc3)ccc1-2)c1ccccc1` [Example 22a.3] to `COC(=O)N[C@@H](C)C(=O)N1CCC[C@H]1c1ncc(-c2ccc(-c3ccc4c(c3)CCCc3[nH]c([C@@H]5CCCN5C(=O)[C@H](C)NC(=O)OC)nc3-4)cc2F)[nH]1` [Example 22g.2], the EC50 rises from 0.01 nM to 0.02 nM (2-fold). The first is the more potent here.

First: COC(=O)N[C@H](C(=O)N(C)[C@@H](C)c1ncc(-c2ccc(-c3ccc4c(c3)CCCc3[nH]c([C@@H]5CCCN5C(=O)[C@@H](NC(=O)OC)C(C)C)nc3-4)cc2)[nH]1)C(C)C [Example 22e]
Second: COC(=O)N[C@H](C(=O)N1CCC[C@H]1c1ncc(-c2cccc(-c3ccc4c(c3)-c3nc([C@@H]5CCCN5C(=O)[C@@H](NC(=O)OC)C(C)C)[nH]c3CCC4)c2)[nH]1)C(C)C [Example 22j]
The EC50 of the first is 4700-fold lower: 0.003 nM for the first, 14 nM for the second.

Same assay, conditions: Hepatitis C virus, read-out: EC50 against HCV 1b (Activity or Range), range class

`CCN(CC)[C@@H](C(=O)N1CCC[C@H]1c1ncc(-c2ccc(-c3ccc4c(c3)CCCc3[nH]c([C@@H]5CCCN5C(=O)[C@@H](c5ccccc5)N(CC)CC)nc3-4)cc2)[nH]1)c1ccccc1` [Example 22.1] and `CCN(CC)[C@@H](C(=O)N1CC(F)(F)C[C@H]1c1ncc(-c2ccc(-c3ccc4c(c3)CCCc3[nH]c([C@@H]5CCCN5C(=O)[C@@H](c5ccccc5)N(CC)CC)nc3-4)cc2)[nH]1)c1ccccc1` [Example 22h.1] fall in the same range of EC50: 0.001 to 0.1 nM for the first, 0.001 to 0.1 nM for the second.

`COC(=O)N[C@@H](C)C(=O)N1CCC[C@H]1c1ncc(-c2ccc(-c3ccc4c(c3)CCCc3[nH]c([C@@H]5CCCN5C(=O)[C@H](C)NC(=O)OC)nc3-4)cc2)[nH]1` [Example 22.2] and `COC(=O)N[C@H](C(=O)N1CC(F)(F)C[C@H]1c1ncc(-c2ccc(-c3ccc4c(c3)CCCc3[nH]c([C@@H]5CCCN5C(=O)[C@@H](NC(=O)OC)C(C)C)nc3-4)cc2)[nH]1)C(C)C` [Example 22h] fall in the same range of EC50: 0.001 to 0.1 nM for the first, 0.001 to 0.1 nM for the second.

`COC(=O)N[C@@H](C(=O)N1CCC[C@H]1c1ncc(-c2ccc(-c3ccc4c(c3)CCCc3[nH]c([C@@H]5CCCN5C(=O)[C@H](NC(=O)OC)c5ccccc5)nc3-4)cc2)[nH]1)c1ccccc1` [Example 22.3] and `COC(=O)N[C@@H](C(=O)N1CCC[C@H]1c1ncc(-c2ccc(-c3ccc4c(c3)OCCc3[nH]c([C@@H]5CCCN5C(=O)[C@H](NC(=O)OC)c5ccccc5)nc3-4)cc2)[nH]1)c1ccccc1` [Example 22a.1] fall in the same range of EC50: 0.001 to 0.1 nM for the first, 0.001 to 0.1 nM for the second.

`COC(=O)N[C@H](C(=O)N1CCC[C@H]1c1nc2c([nH]1)CCCc1cc(-c3ccc(-c4[nH]c([C@@H]5CCCN5C(=O)[C@@H](NC(=O)OC)C(C)C)nc4CC(F)(F)F)cc3)ccc1-2)C(C)C` [Example 22a.2] and `COC(=O)N[C@H](C(=O)N1CCC[C@H]1c1nc2c([nH]1)CCCc1cc(-c3ccc(-c4[nH]c([C@@H]5CCCN5C(=O)[C@@H](NC(=O)OC)C(C)C)nc4CCC(F)(F)F)cc3)ccc1-2)C(C)C` [Example 22a.4] fall in the same range of EC50: 0.001 to 0.1 nM for the first, 0.001 to 0.1 nM for the second.

`CCN(CC)[C@@H](C(=O)N(C)[C@@H](C)c1nc2c([nH]1)CCCc1cc(-c3ccc(-c4cnc([C@@H]5CCCN5C(=O)[C@@H](c5ccccc5)N(CC)CC)[nH]4)cc3)ccc1-2)c1ccccc1` [Example 22b.1] and `CCN(CC)[C@@H](C(=O)N[C@@H](C)c1nc2c([nH]1)CCCc1cc(-c3ccc(-c4cnc([C@@H]5CCCN5C(=O)[C@@H](c5ccccc5)N(CC)CC)[nH]4)cc3)ccc1-2)c1ccccc1` [Example 22c.1] fall in the same range of EC50: 0.001 to 0.1 nM for the first, 0.001 to 0.1 nM for the second.

`COC(=O)N[C@H](C(=O)N(C)[C@@H](C)c1nc2c([nH]1)CCOc1cc(-c3ccc(-c4cnc([C@@H]5CCCN5C(=O)[C@@H](NC(=O)OC)C(C)C)[nH]4)cc3)ccc1-2)C(C)C` [Example 22b.2] and `COC(=O)N[C@H](C(=O)N[C@@H](C)c1nc2c([nH]1)CCCc1cc(-c3ccc(-c4cnc([C@@H]5CCCN5C(=O)[C@@H](NC(=O)OC)C(C)C)[nH]4)cc3)ccc1-2)C(C)C` [Example 22c] fall in the same range of EC50: 0.001 to 0.1 nM for the first, 0.001 to 0.1 nM for the second.

`COC(=O)N[C@@H](C(=O)N(C)[C@@H](C)c1nc2c([nH]1)CCOc1cc(-c3ccc(-c4cnc([C@@H]5CCCN5C(=O)[C@H](NC(=O)OC)c5ccccc5)[nH]4)cc3)ccc1-2)c1ccccc1` [Example 22b.3] and `CCN(CC)[C@@H](C(=O)N1CCC[C@H]1c1ncc(-c2ccc(-c3ccc4c(c3)CCCc3c-4nc([C@@H]4CCCN4C(=O)[C@@H](c4ccccc4)N(CC)CC)n3O)cc2)[nH]1)c1ccccc1` [Example 22n.1] fall in the same range of EC50: 0.001 to 0.1 nM for the first, 0.001 to 0.1 nM for the second.

`CCN(CC)[C@@H](C(=O)N1[C@@H]2C[C@@H]2C[C@H]1c1ncc(-c2ccc(-c3ccc4c(c3)CCCc3[nH]c([C@@H]5C[C@H]6C[C@H]6N5C(=O)[C@@H](c5ccccc5)N(CC)CC)nc3-4)cc2)[nH]1)c1ccccc1` [Example 22c.3] and `CCN(CC)[C@@H](C(=O)N1CCC[C@H]1c1ncc(-c2ccc(-c3ccc4c(c3)CCCc3[nH]c([C@@H]5CCCN5C(=O)[C@@H](c5ccccc5)N(CC)CC)nc3-4)cc2F)[nH]1)c1ccccc1` [Example 22g.1] fall in the same range of EC50: 0.001 to 0.1 nM for the first, 0.001 to 0.1 nM for the second.

`COC(=O)N[C@H](C(=O)N[C@@H](C)c1ncc(-c2ccc(-c3ccc4c(c3)CCCc3[nH]c([C@H](C)NC(=O)[C@@H](NC(=O)OC)C(C)C)nc3-4)cc2)[nH]1)C(C)C` [Example 22d] and `COC(=O)N[C@H](C(=O)N[C@@H](C)c1ncc(-c2ccc(-c3ccc4c(c3)CCCc3[nH]c([C@@H]5CCCN5C(=O)[C@@H](NC(=O)OC)C(C)C)nc3-4)cc2)[nH]1)C(C)C` [Example 22f] fall in the same range of EC50: 0.001 to 0.1 nM for the first, 0.001 to 0.1 nM for the second.

`COC(=O)N[C@H](C(=O)N1CCC[C@H]1c1ncc(-c2ccc(-c3ccc4c(c3)CCCc3[nH]c([C@@H]5CCCN5C(=O)[C@@H](NC(=O)OC)[C@@H](C)OC)nc3-4)cc2F)[nH]1)[C@H](C)OC` [Example 22g.3] and `COC(=O)N[C@H](C(=O)N1CCC[C@H]1c1nc2c([nH]1)CCCc1cc(-c3ccc4c(c3)CCCc3[nH]c([C@@H]5CCCN5C(=O)[C@@H](NC(=O)OC)C(C)C)nc3-4)ccc1-2)C(C)C` [Example 22k] fall in the same range of EC50: 0.001 to 0.1 nM for the first, 0.001 to 0.1 nM for the second.

Compared with `CCN(CC)[C@@H](C(=O)N1CCC[C@H]1c1ncc(-c2cccc(-c3ccc4c(c3)-c3nc([C@@H]5CCCN5C(=O)[C@@H](c5ccccc5)N(CC)CC)[nH]c3CCC4)c2)[nH]1)c1ccccc1` [Example 22j.1], `CCN(CC)[C@@H](C(=O)N1CCC[C@H]1c1nc2c([nH]1)CCCc1cc(-c3ccc4c(c3)CCCc3[nH]c([C@@H]5CCCN5C(=O)[C@@H](c5ccccc5)N(CC)CC)nc3-4)ccc1-2)c1ccccc1` [Example 22k.1] is lower in EC50: 1 to 99 nM for the first, 0.001 to 0.1 nM for the second.

Compared with `COC(=O)N[C@H](C(=O)N1CCC[C@H]1c1ncc(-c2ccc(-c3ccc4c(c3)CCCc3c-4nc([C@@H]4CCCN4C(=O)[C@@H](NC(=O)OC)C(C)C)n3O)cc2)[nH]1)C(C)C` [Example 22n], `COC(=O)N[C@H](C(=O)N1CCC[C@H]1c1ncc(-c2ccc(-c3ccc4c(c3)CCc3[nH]c([C@@H]5CCCN5C(=O)[C@@H](NC(=O)OC)C(C)C)nc3C4)cc2)[nH]1)C(C)C` [Example 22o] is higher in EC50: 0.001 to 0.1 nM for the first, 0.101 to 0.999 nM for the second.
